Measured values: patent US9365522B2, “Pyrazole amide derivative” (AMGEN INC., priority 2015, dated 2016)

Target: T1, ligand binding domain of human ROR gamma (Homo sapiens, UniProt P51449)
T1 construct: NM_001001523; expressed in transfected cells; host or cells: HEK293T
T1 sequence (P51449 247-497 isoform P51449-2): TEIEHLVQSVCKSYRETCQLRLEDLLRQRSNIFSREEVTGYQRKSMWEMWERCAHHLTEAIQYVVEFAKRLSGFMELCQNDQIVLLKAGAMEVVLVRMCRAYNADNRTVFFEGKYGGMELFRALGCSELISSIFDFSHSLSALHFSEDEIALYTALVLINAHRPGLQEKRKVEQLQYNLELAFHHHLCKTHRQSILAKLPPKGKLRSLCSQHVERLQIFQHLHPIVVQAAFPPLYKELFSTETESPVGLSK
Experiment: ROR gamma reporter gene assay (GAL4-RORγ LBD luciferase, Dual-Glo)
Assay type: cell-based
Details: HEK293T cells transfected with pM-ROR gamma, 8 concentrations 3.5 nM to 10.5 μM, 24 h incubation; read-out: result (pIC50, inhibition of RORγ transcriptional activity) (converted)
How it was run: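 Inhibition of RORγ-driven transcription was measured in HEK293T cells expressing a GAL4 fusion of the human RORγ LBD (aa 247-497), with renilla luciferase as internal control. Cells in 10% charcoal-stripped serum received compound (3.5 nM–10.5 μM) for 24 h.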

Row | SMILES | IC50 [pM]
1 | N#C[C@]1(C(=O)O)CC[C@@H](n2ncc(C(=O)N(CC(=O)c3c(Cl)cncc3Cl)Cc3ccc(F)cc3)c2C(F)(F)F)CC1 [Example 128, trans-4-(4-((2-(3,5-dichloropyridin-4-yl)-2-oxoethyl)-((4-fluorophenyl)methyl)carbamoyl)-5-(trifluoromethyl)pyrazol-1-yl)-1-cyanocyclohexane-1-carboxylic acid] | > 1e+07
2 | N#C[C@]1(C(=O)O)CC[C@H](n2ncc(C(=O)N(CC(=O)c3c(Cl)cncc3Cl)Cc3ccc(F)cc3)c2C(F)(F)F)CC1 [Example 129, trans-4-(4-((2-(3,5-dichloropyridin-4-yl)-2-oxoethyl)-((4-fluorophenyl)methyl)carbamoyl)-5-(trifluoromethyl)pyrazol-1-yl)-1-cyanocyclohexane-1-carboxylic acid] | 8.71e+06
3 | CC1(C)CCC(CN(CC(=O)c2c(Cl)cncc2Cl)C(=O)c2cnn([C@H]3CC[C@H](C(=O)O)CC3)c2C(F)(F)F)CO1 (stereo partly drawn) [Example 130] | 174000
4 | CC(C)(C)[C@H]1C[C@@H](N(CC(=O)c2c(Cl)cncc2Cl)C(=O)c2cnn([C@H]3CC[C@H](C(=O)O)CC3)c2C(F)(F)F)C1 [Example 131, trans-4-(4-((3-tert-butylcyclobutyl)-(2-(3,5-dichloropyridin-4-yl)-2-oxoethyl)carbamoyl)-5-(trifluoromethyl)pyrazol-1-yl)cyclohexane-1-carboxylic acid] | 83200
5 | CC(C)(C)[C@H]1C[C@H](N(CC(=O)c2c(Cl)cncc2Cl)C(=O)c2cnn([C@H]3CC[C@H](C(=O)O)CC3)c2C(F)(F)F)C1 [Example 132, trans-4-(4-((3-tert-butylcyclobutyl)-(2-(3,5-dichloropyridin-4-yl)-2-oxoethyl)carbamoyl)-5-(trifluoromethyl)pyrazol-1-yl)cyclohexane-1-carboxylic acid] | 66100
6 | Cc1ccnc(C)c1C(=O)CN(Cc1cc(F)cc(F)c1)C(=O)c1cnn([C@H]2CC[C@H](C(=O)O)CC2)c1C(F)(F)F [Example 134, trans-4-(4-((3,5-difiuorophenyl)methyl-(2-(2,4-dimethylpyridin-3-yl)-2-oxoethyl)carbamoyl)-5-(trifluoromethyl)pyrazol-1-yl)cyclohexane-1-carboxylic acid] | 245000
7 | O=C(CN(Cc1cc(F)cc(F)c1)C(=O)c1cnn([C@H]2CC[C@H](C(=O)O)CC2)c1Cl)c1c(Cl)cncc1Cl [Example 135, trans-4-(5-chloro-4-((2-(3,5-dichloropyridin-4-yl)-2-oxoethyl)-((3,5-difluorophenyl)methyl)carbamoyl)pyrazol-1-yl)cyclohexane-1-carboxylic acid] | 3.09e+06
8 | O=C(CN(Cc1cc(F)cc(F)c1)C(=O)c1cnn([C@H]2CC[C@H](C(=O)O)CC2)c1C(F)(F)F)c1ccc(C(F)(F)F)cc1Cl [Example 136, trans-4-(4-((2-(2-chloro-4-(trifluoromethyl)phenyl)-2-oxoethyl)-((3,5-difluorophenyl)methyl)carbamoyl)-5-(trifluoromethyl)pyrazol-1-yl)cyclohexane-1-carboxylic acid] | 83200
9 | Cc1cc(Cl)c(C(=O)CN(Cc2cc(F)cc(F)c2)C(=O)c2cnn([C@H]3CC[C@H](C(=O)O)CC3)c2C(F)(F)F)c(Cl)c1 [Example 137, trans-4-(4-((2-(2,6-dichloro-4-methylphenyl)-2-oxoethyl)-((3,5-difluorophenyl)methyl)carbamoyl)-5-(trifluoromethyl)pyrazol-1-yl)cyclohexane-1-carboxylic acid] | 4790
10 | C[C@]1(C(=O)O)CC[C@H](n2ncc(C(=O)N(Cc3cc(F)cc(F)c3)C[C@H](F)c3c(Cl)cccc3Cl)c2C(F)(F)F)CC1 [Example 138, trans-4-(4-(((2R)-2-(2,6-dichlorophenyl)-2-fluoroethyl)-((3,5-difluorophenyl)methyl)carbamoyl)-5-(trifluoromethyl)pyrazol-1-yl)-1-methylcyclohexane-1-carboxylic acid] | 7240
11 | C[C@]1(C(=O)O)CC[C@H](n2ncc(C(=O)N(Cc3cc(F)cc(F)c3)C[C@@H](F)c3c(Cl)cccc3Cl)c2C(F)(F)F)CC1 [Example 139, trans-4-(4-(((2S)-2-(2,6-dichlorophenyl)-2-fluoroethyl)-((3,5-difluorophenyl)methyl)carbamoyl)-5-(trifluoromethyl)pyrazol-1-yl)-1-methylcyclohexane-1-carboxylic acid] | 17400
12 | CC(C)(C)CC1CC(CN(CC(=O)c2c(Cl)cncc2Cl)C(=O)c2cnn([C@H]3CC[C@H](C(=O)O)CC3)c2C(F)(F)F)C1 (stereo partly drawn) [Example 140, trans-4-(4-((2-(3,5-dichloropyridin-4-yl)-2-oxoethyl)-((3-(2,2-dimethylpropyl)cyclobutyl)methyl)carbamoyl)-5-(trifluoromethyl)pyrazol-1-yl)cyclohexane-1-carboxylic acid] | 200000
13 | Nc1ccccc1C(=O)CN(Cc1cc(F)cc(F)c1)C(=O)c1cnn([C@H]2CC[C@H](C(=O)O)CC2)c1C(F)(F)F [Example 142, trans-4-(4-((2-(2-aminophenyl)-2-oxoethyl)-((3,5-difluorophenyl)methyl)carbamoyl)-5-(trifluoromethyl)pyrazol-1-yl)cyclohexane-1-carboxylic acid] | 6.61e+06
14 | Cc1ccc(N)c(C(=O)CN(Cc2cc(F)cc(F)c2)C(=O)c2cnn([C@H]3CC[C@H](C(=O)O)CC3)c2C(F)(F)F)c1 [Example 143, trans-4-(4-((2-(2-amino-5-methylphenyl)-2-oxoethyl)-((3,5-difluorophenyl)methyl)carbamoyl)-5-(trifluoromethyl)pyrazol-1-yl)cyclohexane-1-carboxylic acid] | 2.24e+06
15 | CC(C)(C)OCCN(CC(=O)c1c(Cl)cc(C(F)(F)F)cc1Cl)C(=O)c1cnn([C@H]2CC[C@H](C(=O)O)CC2)c1C(F)(F)F [Example 144, trans-4-(4-((2-(2,6-dichloro-4-(trifluoromethyl)phenyl)-2-oxoethyl)-(2-((2-methylpropan-2-yl)oxy)ethyl)carbamoyl)-5-(trifluoromethyl)pyrazol-1-yl)cyclohexane-1-carboxylic acid] | 87100
16 | O=C(CN(Cc1cncnc1)C(=O)c1cnn([C@H]2CC[C@H](C(=O)O)CC2)c1C(F)(F)F)c1c(Cl)cccc1Cl [Example 146, trans-4-(4-((2-(2,6-dichlorophenyl)-2-oxoethyl)-(pyrimidin-5-ylmethyl)carbamoyl)-5-(trifluoromethyl)pyrazol-1-yl)cyclohexane-1-carboxylic acid] | 148000
17 | O=C(CN(Cc1ccccc1O)C(=O)c1cnn([C@H]2CC[C@H](C(=O)O)CC2)c1C(F)(F)F)c1c(Cl)cncc1Cl [Example 147, trans-4-(4-((2-(3,5-dichloropyridin-4-yl)-2-oxoethyl)-((2-hydroxyphenyl)methyl)carbamoyl)-5-(trifluoromethyl)pyrazol-1-yl)cyclohexane-1-carboxylic acid] | 347000
18 | CC(C)(C)c1c(C(=O)N(CC(=O)c2c(Cl)cncc2Cl)Cc2cc(F)cc(F)c2)cnn1[C@H]1CC[C@H](C(=O)O)CC1 [Example 148, trans-4-(5-tert-butyl-4-((2-(3,5-dichloropyridin-4-yl)-2-oxoethyl)-((3,5-difluorophenyl)methyl)carbamoyl)pyrazol-1-yl)cyclohexane-1-carboxylic acid] | 479000
